{"source": "patent EP4560029A1", "about": "“METHOD FOR THE DIAGNOSIS OF ANEURYSM, AND INHIBITORS FOR USE IN THE PREVENTION OR TREATMENT OF ANEURYSM” (Fundacion Instituto De Investigacion Sanitaria Fundacion …, priority 2023, dated 2025)", "key": {"[1]": {"tested_on": "Fbn1^C1039G/+ mice", "assay": "DON by osmotic minipumps in Marfan mouse model: aortic ultrasound, blood pressure, histology, immunoblot, qPCR, RNA-seq", "assay_type": "in vivo", "method": "(§1) Marfan mouse model which harbor a Fbn1^C1039G/+ allele (JAX stock #012885). Wild-type littermates were used as controls for Marfan mice. DON dissolved in saline, (Sigma-Aldrich), at 5 ng* kg^-1 min^-1 and ISRIB (MedChemExpress) at 10mg* kg^-1 min^-1 were infused using subcutaneous osmotic minipumps (Model 2004, Alzet Corp). NR (Novalix) was administered intraperitoneally at 1000 mg/kg in saline every other day. Mice were housed at the pathogen-free animal facility of the CNIC and CBMSO following the animal care standards of the institution. Animal procedures were approved by the CNIC and CBMSO-UAM Ethics Committee and the Madrid regional authorities and conformed with EU Directive 2010/63EU and Recommendation 2007/526/EC regarding the protection of animals used for experimental and other scientific purposes, enforced in Spanish law under Real Decreto 1201/2005.\n(§2) Arterial blood pressure (BP) was measured by the mouse-tail cuff method using the automated BP-2000 Blood Pressure Analysis System (Visitech Systems, Apex, NC, USA). Mice were trained for BP measurements every day for five consecutive days. After training period, BP was measured one day before treatment to determine the baseline BP values in each mouse cohort. BP measurements were recorded in mice located in a tail-cuff restrainer over a warmed surface (37 °C). Fifteen consecutive systolic and diastolic BP measurements were made, and the last 10 readings per mouse were recorded and averaged. For in vivo ultrasound images, the aortic diameter was monitored in isoflurane-anesthetized mice (2% isoflurane) by highfrequency ultrasound with a VEVO 2100 echography device (VisualSonics, Toronto, Canada) at 30-micron resolution. Maximal internal aortic diameters were measured at diastole using VEVO 2100 software, version 1.5.0.\nAortas were extracted after perfusion with 5 ml saline solution, and the adventitia layer was discarded. Liquid nitrogen frozen tissue was homogenized using a cold-mortar and an automatic bead homogenizer (MagNA Lyzer, Roche). Total RNA was isolated with Trizol (Life Technologies). Total RNA (1 µg) was first digested with DNAse and reverse-transcribed with Maxima First Strand cDNA Synthesis Kit (ThermoFisher). For analysis of mtDNA levels, total DNA from cells and tissues was extracted with the SurePrep kit (Fisher Scientific) or Trizol respectively, according to the manufacture's guidelines. qPCR reactions were performed in triplicate with SYBR master mix (Promega), according to the manufacturer's guidelines. To examine probe specificity, we conducted a post-amplification melting-curve analysis. For each reaction, only one melting-temperature (Tm) peak was produced. The amount of target mRNA in samples was estimated by the 2-CT relative quantification method, using B2M, YWHAZ and PP1A for normalization. Fold ratios were calculated relative to mRNA expression levels from controls.\nAortas were extracted after perfusion of cold saline solution and the adventitia layer was discarded. Frozen tissue was homogenized, and total RNA was isolated with Trizol ([…]). RNA from Libraries were prepared according to the instructions of the Kit \"NEBNext Ultra Directional RNA Library Prep kit for Illumina\" (New England Biolabs), following the protocol \"Poly(A) mRNA Magnetic Isolation Module\". The input yield of total RNA to start the protocol was >300 ng quantified by an Agilent 2100 Bioanalyzer using a RNA 6000 nano LabChip kit. The obtained libraries were validated and quantified by an Agilent 2100 Bioanalyzer using a DNA7500 LabChip kit and an equimolecular pool of libraries was titrated by quantitative PCR using the \"Kapa-SYBR FAST qPCR kit forLightCycler480\" (Kapa BioSystems) and a reference standard for quantification. After processing on the Illumina HiSeq 2500 instrument, FastQ files were generated containing nucleotide data and quality scores for each position. RNA-seq reads were mapped to the Mus musculus reference genome, GRCm38.p6, using Hisat2 v2.1.0 software. […]"}, "[2]": {"tested_on": "shFbn1-VSMCs", "assay": "DON incubation of Fbn1-silenced primary VSMCs: immunoblot, flow cytometry, qPCR", "assay_type": "cell-based, murine", "method": "(§3) Isolation and culture of primary mouse VSMCs were previously described. Tissue was digested with a solution of collagenase and elastase (Worthington Biochem) until a single-cell suspension was obtained. All experiments with primary VSMCs were performed during passages 2-7. Lentiviral transduction was performed in VSMCs over 5 h at a multiplicity of infection = 3. The medium was then replaced with fresh DMEM supplemented with 10% FBS and cells were cultured for five more days, treated with NR for five more days and serum-starved for 16h. The HEK-293T (CRL-1573) and Jurkat (Clone E6-1, TIB-152) cell lines, required for high-titer lentivirus production and lentivirus titration respectively, were purchased from ATCC. The experiments were performed during passages 5-10. All cells tested negative for Mycoplasma.\nThe GFPT2 and GFP coding sequence was obtained from Origene. Lentiviruses expressing shRNA targeting murine Fbnl, and control shRNA were purchased from Sigma-Aldrich. Pseudo-typed lentiviruses were produced by transient calcium phosphate transfection of HEK-293T cells and concentrated from culture supernatant by ultracentrifugation (2 hours at 128,000xg; Ultraclear Tubes; SW28 rotor and Optima L-100 XP Ultracentrifuge; Beckman). Viruses were suspended in cold sterile PBS and titrated by transduction of Jurkat cells for 48h. Transduction efficiency (GFP-expressing cells and Puromycin resistant-cells) and cell death (propidium iodide staining) were quantified by flow cytometry.\nAortas were extracted after perfusion with 5 ml saline solution, and the adventitia layer was discarded. Liquid nitrogen frozen tissue was homogenized using a cold-mortar and an automatic bead homogenizer (MagNA Lyzer, Roche). Total RNA was isolated with Trizol (Life Technologies). […] The amount of target mRNA in samples was estimated by the 2-CT relative quantification method, using B2M, YWHAZ and PP1A for normalization. Fold ratios were calculated relative to mRNA expression levels from controls. […]"}, "[3]": {"tested_on": "Fbn1^C1039G/+ mice", "assay": "Glucosamine in drinking water to fuel HBP, Marfan mouse model: aortic ultrasound, aortic histology", "assay_type": "in vivo", "method": "(§4) Marfan mouse model which harbor a Fbn1^C1039G/+ allele (JAX stock #012885). Wild-type littermates were used as controls for Marfan mice. DON dissolved in saline, (Sigma-Aldrich), at 5 ng* kg^-1 min^-1 and ISRIB (MedChemExpress) at 10mg* kg^-1 min^-1 were infused using subcutaneous osmotic minipumps (Model 2004, Alzet Corp). NR (Novalix) was administered intraperitoneally at 1000 mg/kg in saline every other day. Mice were housed at the pathogen-free animal facility of the CNIC and CBMSO following the animal care standards of the institution. […]\nas §2, with “Mice were trained for BP measurements every day for five consecutive days.” left out, “1.5.0. […]” for “1.5.0.”"}, "[4]": {"tested_on": "Fbn1^+/+ mice", "assay": "Glucosamine in drinking water to fuel HBP, wild-type mice: aortic ultrasound, tail-cuff blood pressure, aortic histology", "assay_type": "in vivo, mouse", "method": "as §1, §2\nAfter euthanization by CO2 inhalation, mice were perfused with saline. […] Elastic lamina breaks, defined as interruptions in the elastic fibers, were counted in the entire medial layer of three consecutive cross-sections per mouse, using 4-16 mice per experiment, and the mean number of breaks was calculated. […]"}, "[5]": {"tested_on": "Fbn1^C1039G/+ mice", "assay": "ISRIB by osmotic minipumps in Marfan mouse model: aortic ultrasound, blood pressure", "assay_type": "in vivo", "conditions": "28 days, to normal levels", "method": "as §4\nas §2, with “Mice were trained for BP measurements every day for five consecutive days.” left out, “1.5.0. […]” for “1.5.0.”"}, "[6]": {"tested_on": "shFbn1-VSMCs", "assay": "ISRIB incubation of Fbn1-silenced primary VSMCs: qPCR", "assay_type": "cell-based, murine", "conditions": "ISRIB incubation for 48h", "method": "as §3, with “The HEK-293T (CRL-1573) and Jurkat (Clone E6-1, TIB-152) cell lines, required for high-titer lentivirus production and lentivirus titration respectively, were purchased from ATCC. The experiments were performed during passages 5-10. All cells tested negative for Mycoplasma.” left out\nThe GFPT2 and GFP coding sequence was obtained from Origene. […] Transduction efficiency (GFP-expressing cells and Puromycin resistant-cells) and cell death (propidium iodide staining) were quantified by flow cytometry.\nAortas were extracted after perfusion with 5 ml saline solution, and the adventitia layer was discarded. […] The amount of target mRNA in samples was estimated by the 2-CT relative quantification method, using B2M, YWHAZ and PP1A for normalization. Fold ratios were calculated relative to mRNA expression levels from controls.\nISR is a decisive cell response pathway that controls translation and bases a protective response and drive a transcriptional program to maintain and to contribute to organismal fitness. […] First, the inventors evaluated the ISRIB (an ISR-inhibitor) in MFS in vitro. […]"}, "[7]": {"conditions": "24-weeks Fbn1^C1039G/+ mice, DON by osmotic minipumps, after 7 days of treatment"}, "[8]": {"conditions": "RNA-sequencing on aortas, same cohort as Fig. 3D"}}, "data": [{"smiles": "[N-]=[N+]=CC(=O)CC[C@H](N)C(=O)O", "note": "[DON, 6-diazo-5-oxo-L-norleucine]", "values": [{"measurement": "Aortic dilation", "setting": "[1]; [7]", "result": "completely normalized"}, {"measurement": "blood pressure", "setting": "[1]; [7]", "result": "completely normalized"}, {"measurement": "O-GlcNac levels and WGA staining in aortic tissue", "setting": "[1]; DON treatment for 28 days", "result": "reduces"}, {"measurement": "ISR (p-PERK, p-eIF2α, ATF4 staining and protein levels; Atf4, Atf6, Tgfb2 mRNA) in aortas", "setting": "[1]; MFS-mice, same cohort as Fig. 3D", "result": "inhibited"}, {"measurement": "expression levels of genes related to ER-stress and ISR such as Atf4, Chop, Xbpl, Hsp90b1 and Atf4-dependent genes", "setting": "[1]; [8]", "result": "decreased"}, {"measurement": "expression of conventional MFS-affected genes (TGFβ pathway and ECM-related proteins such as Tgfb3, Cnn2, Serpine1, Thbs1, Pdgfa, Acan, Vcan Sdc4)", "setting": "[1]; [8]", "result": "decreased"}, {"measurement": "histologic features of aortic degeneration in MFS, such as medial thickening, elastic fiber fragmentation, GAG and PG deposition", "setting": "[1]; after 28 days of DON-treatment", "result": "restored"}, {"measurement": "TGFB upstream regulator, activation Z-score", "setting": "[1]; ingenuity analysis of aortic RNA-seq, DON treated mice, p-value 2,5710^-11", "result": "-9,913"}, {"measurement": "IRS signaling through Atf4, Atf6 protein and mRNA expression", "setting": "[2]; ShFbn1-VSMCs, DON for 48h", "result": "decreased"}, {"measurement": "O-GlcNac", "setting": "[2]; shFbn1-VSMCs, DON 10nM, 48h, immunoblot and flow cytometry", "result": "efficiently reduced"}, {"measurement": "mRNA levels of classical MFS genes such as Tgb1, Fgf2 growth factors, osteopontin (spp1) and colagen1 (Col1a1)", "setting": "[2]; shFbn1-VSMCs, DON incubation", "result": "decreased"}]}, {"smiles": "N[C@H]1C(O)O[C@H](CO)[C@@H](O)[C@@H]1O", "note": "(stereo partly shown) [Glucosamine]", "values": [{"measurement": "aortic architecture such as elastin fiber fragmentation and amorphous matrix accumulation", "setting": "[3]; after 28 days of treatment", "result": "worsen"}, {"measurement": "aortic diameter", "setting": "[3]; glucosamine in drinking water (5%), compared with control Fbn1^C1039G/+ mice", "result": "increased"}, {"measurement": "histological features of CMD", "setting": "[4]; elastin fiber fragmentation and Alcian blue staining after 28 days of treatment", "result": "reproduced"}, {"measurement": "aortic diameter", "setting": "[4]; glucosamine in drinking water (5%), 28 days, effect after 7 days of treatment", "result": "significantly increased"}, {"measurement": "systolic blood pressure (BP)", "setting": "[4]; glucosamine in drinking water (5%), after 7 days of treatment", "result": "decreased"}]}, {"smiles": "O=C(COc1ccc(Cl)cc1)N[C@H]1CC[C@H](NC(=O)COc2ccc(Cl)cc2)CC1", "note": "[ISRIB]", "values": [{"measurement": "aortic diameter", "setting": "[5]", "result": "decreases"}, {"measurement": "blood pressure", "setting": "[5]", "result": "decreases"}, {"measurement": "Atf4, Atf6 mRNA levels", "setting": "[6]", "result": "reduces"}]}]}
